ChEMBL document CHEMBL1201862, “PubChem BioAssay data set” (2004)
The source made the active and inactive calls.

How the values were obtained:
[1] = blockade of melanocortin 4 receptor signaling – cell-based, plate reader, cherry pick, counter-screen for LGR2 antagonist project, dose response (AID 743444); type: functional;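 note: transfected HEK 293 cells stimulated with alpha-MSH peptide; potency of inhibitors of the alpha-MSH evoked signal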
[2] = biological target: Nucleotide-binding oligomerization domain-containing protein 2 (Homo sapiens, UniProt Q9HC29); assay: inhibition of NOD2-driven NF-kB reporter – cell-based, luminescence, uHTS, HEK293 (AID 1566); type: functional
[3] = tested on: HEK293; assay: cells; type: functional, cell-based; settings: Homo sapiens
[4] = tested on: HEK293; assay: cells; type: functional, cell-based; settings: Homo sapiens; remark: listed apart in the source
[5] = tested on: HEK293; assay: inhibition of NOD1-driven NF-kB reporter – cell-based, luminescence, uHTS, primary screen (AID 1578); type: functional; settings: Homo sapiens
[6] = tested on: H4; assay: Inhibitors of Prion Protein 5' UTR mRNA Measured in Cell-Based System Using Plate Reader - 2078-01_Inhibitor_Dose_DryPowder_Activity. [Related pubchem assays (depositor defined):AID488894]; type: functional; settings: Homo sapiens
[7] = tested on: HEK293; assay: NOD2 signaling inhibitors in MDP-stimulated cells, cell-based, uHTS, luminescence (AID 2001); type: functional; settings: Homo sapiens
[8] = blockers of bursicon-stimulated LGR2 cAMP reporter – cell-based, HEK293, CRE-luciferase reporter, cherry pick, set 2, dose response (AID 743343); type: functional;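 note: transfected cells were stimulated with diluted bursicon conditioned medium after compound addition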
[9] = tested on: HEK293; assay: cells; type: functional, cell-based; settings: Homo sapiens; remark: listed apart in the source
[10] = biological target: Genome polyprotein (dengue virus type 2, UniProt P29990); assay: flavivirus cap methylation enzyme inhibition – biochemical, confirmation dose response, primary screen (AID 588689); type: functional
[11] = biological target: T1, Small ubiquitin-related modifier 1 (Homo sapiens, UniProt P63165); assay: SUMO1 protein interaction blockers, potency – biochemical, fluorescence polarization, uHTS hits, dose response (AID 624382); type: functional; settings: read-out: IC50_Mean
[12] = biological target: T1, Small ubiquitin-related modifier 1; assay: SUMO1 protein-protein binding blockers, potency – biochemical, FRET, dose response (AID 624383); type: functional; settings: read-out: IC50_Mean
[13] = biological target: Beta-adrenergic receptor kinase 1 (Homo sapiens, UniProt P25098); assay: aptamer displacement from bead-bound GRK2 – biochemical, cherry pick 1, bead flow cytometry, dose response (AID 504500)
[14] = biological target: Induced myeloid leukemia cell differentiation protein Mcl-1 (Homo sapiens, UniProt Q07820); type: functional
[15] = tested on: HeLa; assay: viability loss in HeLa cells – cell-based, 24 h, cherry-picked samples, cytotoxicity control, dose response (AID 504726); type: functional; settings: Homo sapiens;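 note: potency for cytotoxicity as loss of luminescence signal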
[16] = biological target: ORF 73 (Human herpesvirus 8, UniProt O40947); assay: KSHV LANA DNA-binding disruption – biochemical, fluorescence polarization, cherry-picked samples, dose response (AID 504725); parameters: species or system Human gammaherpesvirus 8;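 note: fluorescence polarization of a labeled DNA duplex reporting LANA DNA binding; potency is for inhibitors that block LANA binding to the DNA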
[17] = biological target: Glutathione-S-transferase (Schistosoma japonicum, UniProt Q26513); assay: GST-antibody interaction or FRET quenching – biochemical, TR-FRET, artefact control for Vif-APOBEC3G degradation inhibitor project, dose response (AID 1117362); type: functional
[18] = biological target: Luciferin 4-monooxygenase (Photuris pensylvanica, UniProt Q27757); assay: inhibition of Cell Titer Glo luciferase signal – biochemical, luminescence, cherry-picks, counter-screen for HSF-1 reporter inhibitor project, dose response (AID 588847)
[19] = toxicity toward HepG2 liver cells – cell-based, plate reader, cherry-pick, antagonist series, cytotoxicity control, dose response (AID 743416); type: functional
[20] = viability loss in HEK293 cells – cell-based, plate reader, cherry-picked samples, cytotoxicity control, dose response (AID 743446); type: functional
[21] = alpha-synuclein stem-loop luciferase translation blockers – H4 neuroglioma cells, luminescence, confirmation (AID 1988); type: functional, cell-based
[22] = A549 cell cytotoxicity, dose response, cytotoxicity control, plate reader, cherry-pick, antagonist series (AID 743412); type: functional, cell-based
[23] = biological target: T2, Polyadenylate-binding protein 1 (Homo sapiens, UniProt P11940); assay: MLLE binding blockers, Cy5 peptide tracer – biochemical, fluorescence polarization, Cy5-PAM2 peptide, secondary, miRNA deadenylation inhibitor project, dose response (AID 602260); type: functional; settings: read-out: IC50_Mean
[24] = biological target: T3, Corticotropin-releasing factor receptor 2/Corticotropin-releasing factor-binding protein (Homo sapiens, UniProt P24387+Q13324); assay: Dose Response confirmation of uHTS hits for small molecule antagonists of the CRF-binding protein and CRF-R2 receptor complex.; type: functional; settings: read-out: IC50_Mean
T3 sequence (Q13324 whole entry): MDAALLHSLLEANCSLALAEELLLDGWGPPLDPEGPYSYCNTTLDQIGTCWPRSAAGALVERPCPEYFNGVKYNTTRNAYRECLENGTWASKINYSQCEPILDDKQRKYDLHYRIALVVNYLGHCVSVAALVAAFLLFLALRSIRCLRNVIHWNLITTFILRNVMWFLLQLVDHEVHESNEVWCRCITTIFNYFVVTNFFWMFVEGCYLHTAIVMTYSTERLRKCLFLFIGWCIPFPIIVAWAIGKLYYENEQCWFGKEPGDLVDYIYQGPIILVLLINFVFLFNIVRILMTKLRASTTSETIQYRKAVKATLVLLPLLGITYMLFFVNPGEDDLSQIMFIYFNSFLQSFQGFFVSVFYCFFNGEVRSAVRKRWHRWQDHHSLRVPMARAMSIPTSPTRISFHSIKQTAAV
T3 sequence (P24387 whole entry): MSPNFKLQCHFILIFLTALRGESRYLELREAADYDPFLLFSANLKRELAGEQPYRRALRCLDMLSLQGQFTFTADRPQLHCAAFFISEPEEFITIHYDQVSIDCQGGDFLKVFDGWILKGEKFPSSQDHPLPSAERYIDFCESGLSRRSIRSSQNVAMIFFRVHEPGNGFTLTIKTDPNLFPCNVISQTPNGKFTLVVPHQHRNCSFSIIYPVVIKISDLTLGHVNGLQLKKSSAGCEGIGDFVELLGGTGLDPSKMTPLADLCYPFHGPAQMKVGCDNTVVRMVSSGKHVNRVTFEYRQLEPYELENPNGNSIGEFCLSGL

[25] = biological target: T4, RNA-binding protein pos-1 (Caenorhabditis elegans, UniProt G5EF15); assay: disruptors of C. elegans POS-1 RNA interaction – biochemical, fluorescence polarization, dose response (AID 1964);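 note: purified POS-1 fused to maltose binding protein made in E. coli; potency of compounds blocking POS-1 binding to fluorescent RNA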
T4 sequence (G5EF15 whole entry): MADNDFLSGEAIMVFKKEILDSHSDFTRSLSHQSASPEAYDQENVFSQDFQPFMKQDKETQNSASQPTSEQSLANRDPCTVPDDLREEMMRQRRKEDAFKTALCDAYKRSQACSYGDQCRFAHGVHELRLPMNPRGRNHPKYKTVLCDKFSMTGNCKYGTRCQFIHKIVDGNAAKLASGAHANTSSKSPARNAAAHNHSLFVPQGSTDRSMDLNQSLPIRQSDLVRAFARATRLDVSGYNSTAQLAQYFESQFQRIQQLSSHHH

[26] = biological target: Dual specificity tyrosine-phosphorylation-regulated kinase 1A (Rattus norvegicus, UniProt Q63470); type: biochemical, Homo sapiens
[27] = biological target: T5, Zinc finger protein mex-5 (Caenorhabditis elegans, UniProt Q9XUB2); assay: potency of MEX-5 RNA-binding blockers – biochemical, C. elegans, fluorescence polarization, dose response (AID 1960)
T5 sequence (Q9XUB2 whole entry): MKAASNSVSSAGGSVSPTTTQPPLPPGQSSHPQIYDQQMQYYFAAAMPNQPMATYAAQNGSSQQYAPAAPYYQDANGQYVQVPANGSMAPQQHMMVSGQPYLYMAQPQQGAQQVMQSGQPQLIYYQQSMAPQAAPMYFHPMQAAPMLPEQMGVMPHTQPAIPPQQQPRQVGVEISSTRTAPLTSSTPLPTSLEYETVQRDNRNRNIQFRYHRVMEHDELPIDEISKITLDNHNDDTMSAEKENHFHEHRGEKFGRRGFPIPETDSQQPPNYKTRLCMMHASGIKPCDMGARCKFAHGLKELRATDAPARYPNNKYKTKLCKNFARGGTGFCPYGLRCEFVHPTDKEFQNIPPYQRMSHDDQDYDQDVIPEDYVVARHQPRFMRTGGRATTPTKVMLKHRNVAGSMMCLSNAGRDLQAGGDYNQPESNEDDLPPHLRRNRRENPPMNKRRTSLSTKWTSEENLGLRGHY

[28] = biological target: T6, Rac GTPase-activating protein 1 (Homo sapiens, UniProt Q9H0H5); assay: blockers of MgcRacGAP-driven Rac1 GTP hydrolysis – biochemical, ADP Hunter fluorescence, primary and confirmatory, confirmation (AID 624330); type: functional
T6 sequence (Q9H0H5 whole entry): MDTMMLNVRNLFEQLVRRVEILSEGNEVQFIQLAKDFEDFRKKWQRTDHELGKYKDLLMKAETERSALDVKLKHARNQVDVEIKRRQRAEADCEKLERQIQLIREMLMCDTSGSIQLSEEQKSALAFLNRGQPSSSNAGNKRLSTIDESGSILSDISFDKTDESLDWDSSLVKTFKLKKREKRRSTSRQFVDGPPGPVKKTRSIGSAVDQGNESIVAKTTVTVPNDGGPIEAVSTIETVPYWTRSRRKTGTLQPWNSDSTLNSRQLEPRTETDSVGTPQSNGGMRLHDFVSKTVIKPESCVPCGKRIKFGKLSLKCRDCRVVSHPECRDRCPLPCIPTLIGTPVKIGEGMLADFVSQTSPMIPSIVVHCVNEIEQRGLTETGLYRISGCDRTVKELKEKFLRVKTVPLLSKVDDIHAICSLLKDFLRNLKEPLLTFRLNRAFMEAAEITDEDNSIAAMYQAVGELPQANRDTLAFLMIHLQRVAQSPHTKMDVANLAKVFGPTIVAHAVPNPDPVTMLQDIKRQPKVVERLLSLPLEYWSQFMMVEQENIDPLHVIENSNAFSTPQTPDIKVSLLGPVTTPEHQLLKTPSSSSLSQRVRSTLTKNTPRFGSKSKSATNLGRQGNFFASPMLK

[29] = biological target: Major prion protein (Homo sapiens, UniProt P04156); type: functional, cell-based
[30] = biological target: T2, Polyadenylate-binding protein 1; assay: MLLE domain peptide-binding blockers, IC50 – biochemical, fluorescence polarization, FITC-PAM2 peptide, dose response (AID 602259); type: functional; settings: read-out: IC50_Mean
[31] = biological target: T3, Corticotropin-releasing factor receptor 2/Corticotropin-releasing factor-binding protein; assay: activators of CRF receptor 2 with binding protein – uHTS hits, confirmation (AID 602473); type: functional; settings: read-out: EC50_Mean
[32] = biological target: FAD-linked sulfhydryl oxidase ALR (Homo sapiens, UniProt P55789); assay: ALR-catalysed DTT oxidation blockers – biochemical, H2O2 detection, luminescence, cherry-pick, dose response (AID 493248)
[33] = biological target: Beta-galactosidase (Escherichia coli, UniProt Q8VNN2); assay: PubChem AID 485352; type: functional
[34] = biological target: Type-1 angiotensin II receptor (Homo sapiens, UniProt P30556); assay: antagonism of angiotensin II type 1 receptor – cell-based, uHTS hits, selectivity assay for APJ receptor antagonist project, dose response (AID 463214); type: functional;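 note: antagonist potency against angiotensin II stimulated AT1 response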
[35] = tested on: INS1; assay: INS-1E mitochondrial potential rescue under cytokines – cell-based, JC-1 fluorescence ratio, dry powder, dose response (AID 488931); type: functional; settings: Rattus norvegicus
[36] = biological target: Cytochrome P450 3A4 (Homo sapiens, UniProt P08684); settings: Potency;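 note: confirmatory qHTS run detecting inhibitors and substrates of CYP3A4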
[37] = biological target: Voltage-gated inwardly rectifying potassium channel KCNH2 (Homo sapiens, UniProt Q12809); settings: Potency;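 note: confirmatory quantitative high-throughput screen measuring inhibition of hERG channel activity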

COc1cc(NC(=O)c2cccs2)c(C(=O)OCC(=O)c2cc(C)n(-c3ccccc3)c2C)cc1OC
AC50 [1]: 3.07 µM (active) | EC50 [2]: 7.27 µM (active) | IC50 [3]: > 20 µM (inactive) | IC50 [4]: 1.19 µM (active) | EC50 [5]: > 20 µM (inactive) | AC50 [6]: 2.17 µM (active) | IC50 [7]: > 20 µM (inactive) | AC50 [8]: 9.95 µM (active) | IC50 [9]: > 20 µM (inactive)

O=C(O)c1cccc2c1NC(C(=O)O)C1CC(Sc3ccccc3[N+](=O)[O-])C(Cl)C21 (centres undefined)
IC50 [10]: 38.9 µM (active) | IC50 [11]: > 66.6 µM (inactive) | IC50 [12]: 5.21 µM (active) | EC50 [13]: 19.4 µM (inactive) | IC50 [14]: 2.17 µM (active) | AC50 [15]: 179 µM (active) | AC50 [16]: 59.6 µM (active) | IC50 [17]: > 100 µM (active)

N#CCCCC#Cc1ccc2c(c1)COc1c3ccccc3nn1-2
AC50 [18]: 1.76 µM (active) | AC50 [1]: 7.77 µM (active) | AC50 [19]: > 52 µM (inactive) | AC50 [20]: > 52 µM (inactive) | EC50 [21]: 10.1 µM (inconclusive) | AC50 [22]: > 52 µM (inactive) | AC50 [8]: 6.24 µM (active)

S=c1[nH]c2ccccc2n2c(=S)[nH]nc12
IC50 [23]: > 66 µM (inactive) | IC50 [24]: > 47.1 µM (inactive) | EC50 [25]: 10.3 µM (inconclusive) | AC50 [26]: 8 µM (active) | EC50 [27]: 6.1 µM (active) | IC50 [28]: 56.5 µM (active) | IC50 [29]: > 1.7 µM (active) | IC50 [30]: > 66 µM (inactive) | EC50 [31]: > 53 µM (inactive) | AC50 [32]: 2.35 µM (active)

Cc1cc(C(=O)NNc2ccc(C)c(C)c2)no1
EC50 [33]: > 40 µM (inactive) | IC50 [34]: 8.58 µM (active)

COc1ccc(S(=O)(=O)N(C)C[C@@H]2Oc3c(NC(=O)Nc4c(C)noc4C)cccc3C(=O)N([C@@H](C)CO)C[C@H]2C)cc1
AC50 [35]: 28 µM (active)

CCOP(=S)(OCC)SCCSCC [DISULFOTON]
AC50 [36]: 20 µM (inconclusive) | AC50 [37]: 1 µM (inconclusive)
